Laboratory results: PubChem BioAssay (NCI)
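Cultured in 96-well plates, cells were exposed to test compound for 48 hours across five concentrations. Here, GI50 denotes the concentration required for 50% inhibition of growth. At the TGI there is no net growth.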

Columns and labels:
Assay in all cases: growth of human tumour cells (NCI), 48 h
A549 NSCLC = test system: A549 NSCLC
HCC-2998 colon = test system: HCC-2998 colon
HCT-116 colon = test system: HCT-116 colon
MALME-3M melanoma = test system: MALME-3M melanoma
OVCAR-5 ovarian = test system: OVCAR-5 ovarian
RPMI-8226 leukemia = test system: RPMI-8226 leukemia
SK-MEL-28 melanoma = test system: SK-MEL-28 melanoma
U251 CNS = test system: U251 CNS
MDA-MB-435 = test system: MDA-MB-435
NCI/ADR-RES ovarian = test system: NCI/ADR-RES ovarian

Row | SMILES | TGI (A549 NSCLC) | TGI (HCC-2998 colon) | TGI (HCT-116 colon) | TGI (MALME-3M melanoma) | TGI (OVCAR-5 ovarian) | TGI (RPMI-8226 leukemia) | TGI (SK-MEL-28 melanoma) | TGI (U251 CNS) | GI50 (HCC-2998 colon) | GI50 (MALME-3M melanoma) | GI50 (MDA-MB-435) | TGI (MDA-MB-435) | GI50 (OVCAR-5 ovarian) | GI50 (RPMI-8226 leukemia) | GI50 (SK-MEL-28 melanoma) | GI50 (A549 NSCLC) | GI50 (NCI/ADR-RES ovarian) | TGI (NCI/ADR-RES ovarian) | GI50 (U251 CNS) | GI50 (HCT-116 colon)
1 | COC(=O)C1CC2CC(=NNC(N)=O)CC2C1 (stereo not drawn) | > 100 µM | > 100 µM | > 100 µM | > 100 µM | > 100 µM | > 100 µM | > 100 µM | > 100 µM | – | – | – | – | – | – | – | – | – | – | – | –
2 | COc1ccc(-c2cc(Cc3cccs3)c(=O)[nH]n2)cc1 | > 100 µM | > 100 µM | > 100 µM | > 100 µM | > 100 µM | – | > 100 µM | > 100 µM | – | – | – | – | – | – | – | – | – | – | – | –
3 | N#CC(=C1C=CC(=NO)C=C1)c1ccc(Cl)cc1 | 49.7 µM | 33.1 µM | 21.6 µM | 60.7 µM | 28.8 µM | 15.3 µM | 37.9 µM | 34.3 µM | – | – | – | – | – | – | – | – | – | – | – | –
4 | COc1cc2nc(N3CCCC3)nc(NCCc3ccccc3)c2cc1OC | – | 3.64 µM | – | 3.38 µM | 3.21 µM | 5.75 µM | 3.03 µM | – | 1.96 µM | 1.9 µM | 1.74 µM | 3.25 µM | 1.72 µM | 2.18 µM | 1.66 µM | – | – | – | – | –
5 | C1CCC([PH+](C2CCCCC2)C2CCCCC2[PH+](C2CCCCC2)C2CCCCC2)CC1.[Au].[CH-]1CCCCC1CC1CCCC[N-]1 (stereo not drawn) | 3.03 µM | 1.49 µM | – | 0.739 µM | 2.01 µM | 0.944 µM | 1.94 µM | 1.59 µM | 0.404 µM | 0.192 µM | 0.286 µM | 1.01 µM | 0.452 µM | 0.186 µM | 0.433 µM | 0.241 µM | 2.86 µM | > 100 µM | 0.199 µM | –
6 | O=C(NC1CCCCC1)NS(=O)(=O)c1ccc2c(c1)CCC2 | > 100 µM | > 100 µM | – | > 100 µM | > 100 µM | > 100 µM | > 100 µM | > 100 µM | – | – | – | – | – | – | – | – | – | – | – | –
7 | N#CC(C#N)=C1NC(=O)CC(=O)N1 | > 100 µM | > 100 µM | > 100 µM | > 100 µM | > 100 µM | > 100 µM | – | > 100 µM | – | – | – | – | – | – | – | – | – | – | – | –
8 | CC1(O)C=CC(=O)C=C1 | > 100 µM | > 100 µM | > 100 µM | 39.5 µM | > 100 µM | > 100 µM | 38.5 µM | 48.1 µM | – | – | – | – | – | – | – | – | – | – | – | –
9 | Cc1ccc2c(C3Cc4ccccc4N3C(=O)/C=C\C(=O)O)c(C)[nH]c2c1 (stereo not drawn) | > 100 µM | > 100 µM | > 100 µM | > 100 µM | > 100 µM | 79.7 µM | > 100 µM | > 100 µM | – | – | – | – | – | – | – | – | – | – | – | –
10 | Clc1ccc(Nc2nc3ccccc3nc2-c2cccs2)cc1Cl | > 100 µM | > 100 µM | > 100 µM | > 100 µM | > 100 µM | > 100 µM | > 100 µM | – | – | – | – | – | – | – | – | – | – | – | – | –
11 | O=C1NC(=O)C(N2C(=O)c3ccccc3C2=O)CC1O (stereo not drawn) | > 100 µM | – | > 100 µM | > 100 µM | > 100 µM | > 100 µM | > 100 µM | > 100 µM | – | > 100 µM | > 100 µM | > 100 µM | > 100 µM | > 100 µM | > 100 µM | > 100 µM | > 100 µM | > 100 µM | > 100 µM | > 100 µM
12 | O=C(O)CN1CCN(CC(=O)O)CC(=O)[O][Hg][O]C(=O)C1 | > 100 µM | – | 33.7 µM | 33 µM | 38.5 µM | 50.5 µM | 34.8 µM | 25.7 µM | – | 16.6 µM | 16.2 µM | 30.5 µM | 18.7 µM | 18.2 µM | 19.2 µM | > 100 µM | 30.5 µM | > 81.3 µM | 12.2 µM | 17.9 µM
13 | O=C1C(=C([O-])c2ccccc2)C(=O)c2ccccc21.O=C1C(=C([O-])c2ccccc2)C(=O)c2ccccc21.[Fe+2] | > 100 µM | > 100 µM | > 100 µM | > 100 µM | > 100 µM | > 100 µM | > 100 µM | > 100 µM | 69.5 µM | > 100 µM | – | – | > 100 µM | 65.7 µM | > 100 µM | 54.7 µM | – | – | 54.9 µM | > 100 µM
14 | CCCP1(=O)C=C(C)C(=C(Cl)Cl)C(C)=C1 (stereo not drawn) | > 100 µM | 92.4 µM | > 100 µM | > 100 µM | > 100 µM | – | > 100 µM | > 100 µM | – | – | – | – | – | – | – | – | – | – | – | –
15 | O=C1c2c(c3c4ccccc4[nH]c3c3ccc4ccccc4c23)C(=O)N1CCN1CCNCC1 | 2.64 µM | 3.15 µM | 3.06 µM | 3.18 µM | 3.12 µM | 4.1 µM | 3.1 µM | 3.21 µM | 1.63 µM | 1.57 µM | 1.67 µM | 3.11 µM | 1.72 µM | 1.81 µM | 1.68 µM | 1.16 µM | – | – | 1.64 µM | 1.59 µM
16 | CCOC(=O)C1C(=S)NC(=O)C1C#N (stereo not drawn) | > 100 µM | > 100 µM | – | > 100 µM | > 100 µM | > 100 µM | > 100 µM | > 100 µM | – | – | – | – | – | – | – | – | – | – | – | –
17 | COc1cc(N2C(=O)[C@H](O)C2c2ccc(SC)cc2)cc(OC)c1OC (stereo partly drawn) | > 100 µM | 65.3 µM | > 100 µM | 74 µM | > 100 µM | 14.6 µM | – | > 100 µM | 0.0238 µM | 21.6 µM | – | – | 0.0237 µM | < 0.01 µM | – | 0.0131 µM | 0.0166 µM | > 100 µM | < 0.01 µM | < 0.01 µM
18 | CC(=O)Nc1ccc(SC#N)c2c(NC(C)=O)cccc12 | > 100 µM | > 100 µM | > 100 µM | > 100 µM | > 100 µM | 73.9 µM | > 100 µM | > 100 µM | – | – | – | – | – | – | – | – | – | – | – | –
